Measurements from patent US11116778B2, “Prodrugs of ALOX-15 inhibitors and methods of using the same” (EMPIRICO INC., priority 2019, dated 2021).

Columns and labels:
15-lipoxygenase = target: T1, 15-lipoxygenase (Oryctolagus cuniculus, UniProt P12530); test: 15-HETE levels in rabbit nasal mucosa after nasal administration of compound 5 (IL4/IL13 inflammation model); type: in vivo; conditions: rostral and caudal regions
T1 construct: Animals were then euthanized and nasal mucosa was collected; tissue Covance; host or cells: nasal mucosa of NZW rabbits
T1 sequence (P12530 1-663): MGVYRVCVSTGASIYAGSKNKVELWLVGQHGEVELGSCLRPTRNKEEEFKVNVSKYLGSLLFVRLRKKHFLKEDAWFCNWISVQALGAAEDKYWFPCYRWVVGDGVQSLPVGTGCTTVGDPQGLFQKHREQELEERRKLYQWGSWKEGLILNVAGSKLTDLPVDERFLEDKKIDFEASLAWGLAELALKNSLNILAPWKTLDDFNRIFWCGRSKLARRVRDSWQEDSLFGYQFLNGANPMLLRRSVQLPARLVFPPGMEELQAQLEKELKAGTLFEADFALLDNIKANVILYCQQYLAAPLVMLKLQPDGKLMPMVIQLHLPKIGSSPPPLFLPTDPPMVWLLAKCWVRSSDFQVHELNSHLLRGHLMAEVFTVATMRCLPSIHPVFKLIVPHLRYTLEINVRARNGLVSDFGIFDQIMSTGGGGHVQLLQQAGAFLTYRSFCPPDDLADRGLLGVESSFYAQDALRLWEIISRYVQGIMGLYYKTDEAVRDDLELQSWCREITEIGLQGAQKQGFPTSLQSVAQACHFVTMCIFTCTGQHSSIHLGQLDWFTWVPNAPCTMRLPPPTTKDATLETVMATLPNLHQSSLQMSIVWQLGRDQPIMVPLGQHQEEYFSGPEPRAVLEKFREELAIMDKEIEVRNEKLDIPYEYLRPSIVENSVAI
Protocol: (§1) Six (6) female NZW rabbits were employed in this study. Rabbits were obtained from Covance (Denver Pa.). Rabbits were between approximately 10 and 12 months of age at the time of study start. At time point 0, all animals received 50 μL of solution containing rabbit IL4 (RND Systems/Biotechne) and human IL13 (PreproTech) at a concentration of 0.25 mg/mL each in 0.5×PBS containing 12.5 mg/mL BSA per nostril. This was administered intranasally via a venous catheter attached to a micropipette. The animal was positioned in a supine manner and the venous catheter inserted into the nostril. The volume was introduced into the nasal cavity and the same procedure was repeated with the other nostril.
At the 2, 4, and 6 hour time points, animals in Group 1 (n=3) received 0.2 mL of vehicle (0.9% saline) per nostril and the animals in Group 2 (n=3) received 0.2 mL of compound 5 (10 mM) in vehicle per nostril. […]
Nasal lavage and serum samples were analyzed for the levels of compound 3 and compound 5. […] Compound 3 was quantified using LC-MS/MS (QTrap5500, Applied Biosystems). […] Compound 5 was quantified using LC-MS/MS (QTrap5500, Applied Biosystems). […]

ALOX15 mRNA = ALOX15 mRNA by RT-qPCR in rabbit nasal mucosa; type: in vivo; conditions: rostral and caudal regions; rabbits, compound 5 10 mM intranasal
Protocol: as §1, with “other nostril. […]” for “other nostril.”
Relative ALOX15 and POSTN mRNA levels in nasal mucosa were measured by RT-qPCR. […] The level of ALOX15 or POSTN mRNA from each sample was measured in triplicate by real-time qPCR on an Applied Biosystems 7500 Fast Real-Time PCR machine using the TaqMan Gene Expression Assay for rabbit ALOX15 (ThermoFisher, assay #Oc03823548_s1). The level of GAPDH mRNA was measured in biplex reactions using TaqMan Gene Expression Assay (ThermoFisher, assay #Oc03823402_g1) and used to determine relative ALOX15 mRNA levels in each well using the delta-delta Ct method. […] Relative POSTN mRNA levels were measured as above using TaqMan Gene Expression Assay specific for rabbit POSTN mRNA (ThermoFisher, assay #Oc06804808_s1). […]

O=C(Nc1ccc(F)cc1Cl)c1nn(COP(=O)(O)O)c(Cl)c1Cl [compound 5, (4,5-dichloro-3-((2-chloro-4-fluorophenyl)carbamoyl)-1H-pyrazol-1-yl)methyl dihydrogen phosphate]
lower: mean 15-HETE levels in nasal mucosa versus vehicle (FIG. 9) (15-lipoxygenase; rabbits, IL4/IL13 intranasal, compound 5 10 mM 0.2 mL per nostril at 2, 4, 6 hours) | mean esterified 15-HETE levels in nasal mucosa versus vehicle (FIG. 10) (15-lipoxygenase; total after NaOH hydrolysis minus free 15-HETE) | relative level of ALOX15 mRNA in nasal mucosa versus vehicle (FIG. 11) (ALOX15 mRNA)
